Assay results reported in patent US11472808B2, “Substituted pyrrolo[1,2-c]pyrimidines as hepatitis B antiviral agents” (Enanta Pharmaceuticals, Inc., priority 2019, dated 2022).

System: HBV
Test: HepAD38 anti-HBV assay: reduction of viral product accumulation (virion DNA qPCR, HBsAg/HBeAg ELISA)
Format: cell-based
Settings: Hepatitis B virus, 120 h; HepAD38 cells; concentration reducing viral product accumulation by 50% relative to no drug controls; harvest five days after compound addition; read-out: HepAD38 EC50
Method: Methods: HepAD38 cells are maintained as previously reported (Ladner et al, Antimicrob. Agents Chemother. 1997, […], 1715). Briefly, cells are passaged upon attaining confluency in DMEM/F12 media in the presence of 10% FBS, Penn/Strep, 250 μg/mL G418, and 1 μg/ml tetracycline. Novel compounds are screened by first washing cells three times with PBS to remove tetracycline, and plating in 96 well plates at 35,000 cells/well. Compounds dissolved in DMSO are then diluted 1:200 into wells containing cells. Five days after compound addition, material is harvested for analysis. For an extended 8 day analysis, cells are plated and treated as described above, but media and compound are refreshed on d2 and d5 post initial treatment.
On harvest day, virion DNA is obtained by lysing with Sidestep Lysis and Stabilization Buffer and then quantified via quantitative real time PCR. Commercially available ELISA kits are used to quantitate the viral proteins HBsAg (Alpco) or HbeAg (US Biological) by following the manufacturer's recommended protocol after diluting samples to match the linear range of their respective assays. Irrespective of readout, compound concentrations that reduce viral product accumulation in the cell lysates or supernatants by 50% relative to no drug controls (EC50) are reported; EC50 ranges are as follows: A<0.1 μM; B 0.1-0.4 μM; C>0.4 μM.

Row | Compound | EC50
1 | COC(=O)c1cccc(S(=O)(=O)N[C@H]2CC3=C(c4ccn(C(F)F)n4)[C@H](c4ccc(F)cc4Cl)N=C(c4nccs4)N3C2)c1 [Example 2] | < 100 nM
2 | COC(=O)c1ccccc1S(=O)(=O)NC[C@]1(F)CC2=C(c3ccn(C(F)F)n3)[C@H](c3ccc(F)cc3Cl)N=C(c3nccs3)N2C1 [Example 189] | > 400 nM
3 | O=S(=O)(N[C@H]1CC2=C(c3ccn(C(F)F)n3)[C@H](c3ccc(F)cc3Cl)N=C(c3nccs3)N2C1)C1CCCCC1 [Example 240] | < 100 nM
4 | OC/C=C/[C@@]1(F)CC2=C(c3ccn(C(F)F)c3)[C@H](c3ccc(F)cc3Cl)N=C(c3nccs3)N2C1 [Example 175] | 100 to 400 nM
5 | O=S(=O)(N[C@H]1CC2=C(c3ccn(C(F)F)n3)[C@H](c3ccc(F)cc3Cl)N=C(c3nccs3)N2C1)c1ccc2ncccc2c1 [Example 397] | < 100 nM
6 | O=C(N[C@H]1CC2=C(c3ccn(C(F)F)n3)[C@H](c3ccc(F)cc3Cl)N=C(c3nccs3)N2C1)c1ncc[nH]1 [Example 234] | < 100 nM
7 | COC(=O)N[C@H]1CC2=C(c3ccn(C(F)F)n3)[C@H](c3ccc(F)cc3Cl)N=C(c3nccs3)N2C1 [Example 198] | < 100 nM
8 | O=C(N[C@H]1CC2=C(c3ccn(C(F)F)n3)[C@H](c3ccc(F)cc3Cl)N=C(c3nccs3)N2C1)N1CC[C@H](O)C1 [Example 224] | < 100 nM
9 | O=S(=O)(N[C@H]1CC2=C(c3ccn(C(F)F)n3)[C@H](c3ccc(F)cc3Cl)N=C(c3nccs3)N2C1)N1CCCC(F)(F)C1 [Example 278] | < 100 nM
10 | COCCN(C)S(=O)(=O)N(C)[C@H]1CC2=C(c3ccn(C(F)F)n3)[C@H](c3ccc(F)cc3Cl)N=C(c3nccs3)N2C1 [Example 268] | < 100 nM
11 | COC(=O)OC[C@]1(F)CC2=C(c3ccn(C(F)F)n3)[C@H](c3ccc(F)cc3Cl)N=C(c3nccs3)N2C1 [Example 182] | 100 to 400 nM
12 | CS(=O)(=O)NC[C@@]1(N)CC2=C(c3ccn(C(F)F)n3)[C@H](c3ccc(F)cc3Cl)N=C(c3nccs3)N2C1 [Example 148] | > 400 nM
13 | OC/C=C/[C@]1(F)CC2=C(c3ccn(C(F)F)n3)[C@H](c3ccc(F)cc3Cl)N=C(c3nccs3)N2C1 [Example 174] | 100 to 400 nM
14 | CCOC(=O)C(NS(=O)(=O)N[C@H]1CC2=C(c3ccn(C(F)F)n3)[C@H](c3ccc(F)cc3Cl)N=C(c3nccs3)N2C1)c1ccccn1 (stereo partly shown) [Example 343] | < 100 nM
15 | C[C@H](NS(=O)(=O)N[C@H]1CC2=C(c3ccn(C(F)F)n3)[C@H](c3ccc(F)cc3Cl)N=C(c3nccs3)N2C1)c1ccccn1 [Example 160] | < 100 nM
16 | N#CC[C@]1(F)CC2=C(c3ccn(C(F)F)n3)[C@H](c3ccc(F)cc3Cl)N=C(c3nccs3)N2C1 [Example 193] | > 400 nM
17 | O=C(O)C1CCCN(CCS(=O)(=O)N[C@H]2CC3=C(c4ccn(C(F)F)n4)[C@H](c4ccc(F)cc4Cl)N=C(c4nccs4)N3C2)C1 (stereo partly shown) [Example 68] | > 400 nM
18 | COC(=O)[C@H]1C[C@@H](S(=O)(=O)N[C@H]2CC3=C(c4ccn(C(F)F)n4)[C@H](c4ccc(F)cc4Cl)N=C(c4nccs4)N3C2)C1 [Example 15] | 100 to 400 nM
19 | O=C(O)c1cccc(S(=O)(=O)N[C@H]2CC3=C(c4ccn(C(F)F)n4)[C@H](c4ccc(F)cc4Cl)N=C(c4nccs4)N3C2)c1 [Example 5] | < 100 nM
20 | O=S(=O)(NC1CCCCC1)N[C@H]1CC2=C(c3ccn(C(F)F)n3)[C@H](c3ccc(F)cc3Cl)N=C(c3nccs3)N2C1 [Example 417] | < 100 nM
21 | O=S(=O)(C[C@]1(F)CC2=C(c3ccn(C(F)F)n3)[C@H](c3ccc(F)cc3Cl)N=C(c3nccs3)N2C1)c1ccccc1 [Example 195] | < 100 nM
22 | O=S(=O)(N[C@H]1CC2=C(c3ccn(C(F)F)n3)[C@H](c3ccc(F)cc3Cl)N=C(c3nccs3)N2C1)c1cc(F)c(F)c(F)c1 [Example 412] | < 100 nM
23 | OCCOC[C@]1(O)CC2=C(c3ccn(C(F)F)n3)[C@H](c3ccc(F)cc3Cl)N=C(c3nccs3)N2C1 [Example 110] | 100 to 400 nM
24 | O=S(=O)(CCc1ccccn1)N[C@H]1CC2=C(c3ccn(C(F)F)n3)[C@H](c3ccc(F)cc3Cl)N=C(c3nccs3)N2C1 [Example 380] | 100 to 400 nM
25 | O=S(=O)(N[C@H]1CC2=C(c3ccn(C(F)F)n3)[C@H](c3ccc(F)cc3Cl)N=C(c3nccs3)N2C1)N1CCCC1c1cccnc1 (stereo partly shown) [Example 283] | 100 to 400 nM
26 | CS(=O)(=O)C[C@@]1(O)CC2=C(c3ccn(C(F)F)n3)[C@H](c3ccc(F)cc3Cl)N=C(c3nccs3)N2C1 [Example 144] | 100 to 400 nM
27 | OC1(Cc2nnn[nH]2)CC2=C(c3ccn(C(F)F)n3)[C@H](c3ccc(F)cc3Cl)N=C(c3nccs3)N2C1 (stereo partly shown) [Example 141] | > 400 nM
28 | CS(=O)(=O)NCCS(=O)(=O)N[C@H]1CC2=C(c3ccn(C(F)F)n3)[C@H](c3ccc(F)cc3Cl)N=C(c3nccs3)N2C1 [Example 344] | 100 to 400 nM

Row | Compound | EC50
29 | O=C(O)CCCCS(=O)(=O)N[C@H]1CC2=C(c3ccn(C(F)F)n3)[C@H](c3ccc(F)cc3Cl)N=C(c3nccs3)N2C1 [Example 19] | 100 to 400 nM
30 | O=C(N[C@H]1CC2=C(c3ccn(C(F)F)n3)[C@H](c3ccc(F)cc3Cl)N=C(c3nccs3)N2C1)N1CCS(=O)(=O)CC1 [Example 219] | 100 to 400 nM
31 | CCOC(=O)CC(NS(=O)(=O)N[C@H]1CC2=C(c3ccn(C(F)F)n3)[C@H](c3ccc(F)cc3Cl)N=C(c3nccs3)N2C1)c1ccccn1 (stereo partly shown) [Example 355] | 100 to 400 nM
32 | COC(=O)c1cccc(S(=O)(=O)NC[C@]2(O)CC3=C(c4ccn(C(F)F)n4)[C@H](c4ccc(F)cc4Cl)N=C(c4nccs4)N3C2)c1 [Example 130] | 100 to 400 nM
33 | CSC[C@@]1(O)CC2=C(c3ccn(C(F)F)n3)[C@H](c3ccc(F)cc3Cl)N=C(c3nccs3)N2C1 [Example 142] | > 400 nM
34 | OCC(O)[C@@]1(F)CC2=C(c3ccn(C(F)F)n3)[C@H](c3ccc(F)cc3Cl)N=C(c3nccs3)N2C1 (stereo partly shown) [Example 170] | 100 to 400 nM
35 | O=S(=O)(N[C@H]1CC2=C(c3ccn(C(F)F)n3)[C@H](c3ccc(F)cc3Cl)N=C(c3nccs3)N2C1)[C@H]1CC[C@](O)(c2ccccn2)CC1 [Example 104] | < 100 nM
36 | COC(=O)[C@H]1C[C@H](S(=O)(=O)N[C@H]2CC3=C(c4ccn(C(F)F)n4)[C@H](c4ccc(F)cc4Cl)N=C(c4nccs4)N3C2)C1 [Example 14] | 100 to 400 nM
37 | O=S(=O)(CCCO)N[C@H]1CC2=C(c3ccn(C(F)F)n3)[C@H](c3ccc(F)cc3Cl)N=C(c3nccs3)N2C1 [compound 313] | < 100 nM
38 | O=C(N[C@H]1CC2=C(c3ccn(C(F)F)n3)[C@H](c3ccc(F)cc3Cl)N=C(c3nccs3)N2C1)C1CCC1 [Example 237] | 100 to 400 nM
39 | O=S(=O)(NCC1(c2ccccn2)CC1)N[C@H]1CC2=C(c3ccn(C(F)F)n3)[C@H](c3ccc(F)cc3Cl)N=C(c3nccs3)N2C1 [Example 316] | 100 to 400 nM
40 | CS(=O)(=O)NC[C@]1(N)CC2=C(c3ccn(C(F)F)n3)[C@H](c3ccc(F)cc3Cl)N=C(c3nccs3)N2C1 [Example 146] | > 400 nM
41 | CC(C)(C)[Si](C)(C)OCC1(F)CC2=C(c3ccn(C(F)F)n3)[C@H](c3ccc(F)cc3Cl)N=C(c3nccs3)N2C1 (stereo partly shown) [Example 164] | > 400 nM
42 | O=S(=O)(NCc1ccccn1)N[C@H]1CC2=C(c3ccn(C(F)F)n3)[C@H](c3ccc(F)cc3Cl)N=C(c3nccs3)N2C1 [Example 306] | 100 to 400 nM
43 | O=S(=O)(N[C@H]1CC2=C(c3ccn(C(F)F)n3)[C@H](c3ccc(F)cc3Cl)N=C(c3nccs3)N2C1)N1CCC[C@H]1C(F)(F)F [Example 281] | < 100 nM
44 | O=S(=O)(N[C@H]1CC2=C(c3ccn(C(F)F)n3)[C@H](c3ccc(F)cc3Cl)N=C(c3nccs3)N2C1)N1CCCC1c1ccccn1 (stereo partly shown) [Example 288] | < 100 nM
45 | O=C(O)C1CCN(CCS(=O)(=O)N[C@H]2CC3=C(c4ccn(C(F)F)n4)[C@H](c4ccc(F)cc4Cl)N=C(c4nccs4)N3C2)CC1 [Example 59] | 100 to 400 nM
46 | O=C(N[C@H]1CC2=C(c3ccn(C(F)F)n3)[C@H](c3ccc(F)cc3Cl)N=C(c3nccs3)N2C1)C1CCCC1 [Example 238] | 100 to 400 nM
47 | O[C@]1(Cn2cccn2)CC2=C(c3ccn(C(F)F)n3)[C@H](c3ccc(F)cc3Cl)N=C(c3nccs3)N2C1 [Example 120] | > 400 nM
48 | COC[C@@]1(O)CC2=C(c3ccn(C(F)F)n3)[C@H](c3ccc(F)cc3Cl)N=C(c3nccs3)N2C1 [Example 106] | > 400 nM
49 | CCC(=O)N[C@H]1CC2=C(c3ccn(C(F)F)n3)[C@H](c3ccc(F)cc3Cl)N=C(c3nccs3)N2C1 [Example 197] | 100 to 400 nM
50 | CONC[C@@]1(O)CC2=C(c3ccn(C(F)F)n3)[C@H](c3ccc(F)cc3Cl)N=C(c3nccs3)N2C1 [Example 126] | > 400 nM
51 | O=S(=O)(N[C@H]1CC2=C(c3ccn(C(F)F)n3)[C@H](c3ccc(F)cc3Cl)N=C(c3nccs3)N2C1)[C@H]1CC[C@](O)(c2cccnc2)CC1 [Example 105] | < 100 nM
52 | CC(=O)OCCCCS(=O)(=O)N[C@H]1CC2=C(c3ccn(C(F)F)n3)[C@H](c3ccc(F)cc3Cl)N=C(c3nccs3)N2C1 [Example 279] | < 100 nM
53 | COC(=O)CCCCS(=O)(=O)N[C@H]1CC2=C(c3ccn(C(F)F)n3)[C@H](c3ccc(F)cc3Cl)N=C(c3nccs3)N2C1 [Example 13] | 100 to 400 nM
54 | ONC[C@]1(O)CC2=C(c3ccn(C(F)F)n3)[C@H](c3ccc(F)cc3Cl)N=C(c3nccs3)N2C1 [Example 123] | > 400 nM
55 | OC(c1c[nH]nn1)C1(F)CC2=C(c3ccn(C(F)F)n3)[C@H](c3ccc(F)cc3Cl)N=C(c3nccs3)N2C1 (stereo partly shown) [Example 184] | > 400 nM
